Values joined by “and” are separate entries in the source; they are usually repeats but may differ in a detail not shown here. Equal values may be shown once.
Key:
[1] = molecular target: CDK12–cyclin K (Homo sapiens, UniProt Q9NYV4); assay: Lanthascreen kinase binding assay, CDK12; settings: for Lanthascreen raw signal, sheet CDK12: duplicates
Experimental: Lanthascreen experiments were performed using commercially available reagents (Thermo Fisher) and according to the manufacturer’s instructions.

[2] = molecular target: CDK12; set-up: method as in PMID 30065029; settings: read-out: CDK12 binding affinity; cited from earlier work

CDK12–cyclin K, sequence (Q9NYV4 713-1052): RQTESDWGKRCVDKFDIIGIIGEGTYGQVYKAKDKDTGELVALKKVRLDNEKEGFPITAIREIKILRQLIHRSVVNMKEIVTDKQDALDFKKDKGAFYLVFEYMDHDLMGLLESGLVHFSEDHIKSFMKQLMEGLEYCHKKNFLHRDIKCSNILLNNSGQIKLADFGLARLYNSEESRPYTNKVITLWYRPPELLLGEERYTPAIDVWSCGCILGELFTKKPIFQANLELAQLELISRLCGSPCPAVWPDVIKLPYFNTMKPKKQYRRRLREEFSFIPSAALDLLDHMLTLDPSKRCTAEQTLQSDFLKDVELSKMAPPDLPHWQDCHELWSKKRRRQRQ
CDK12–cyclin K, sequence (O75909 1-267 partner limits assumed): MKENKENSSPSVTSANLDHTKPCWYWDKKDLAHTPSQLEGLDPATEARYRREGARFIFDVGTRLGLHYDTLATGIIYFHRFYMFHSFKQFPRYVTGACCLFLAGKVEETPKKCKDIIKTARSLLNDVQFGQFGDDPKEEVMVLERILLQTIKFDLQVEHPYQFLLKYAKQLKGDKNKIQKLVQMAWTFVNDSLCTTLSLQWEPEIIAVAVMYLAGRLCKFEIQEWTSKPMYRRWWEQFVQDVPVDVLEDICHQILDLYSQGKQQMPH

C[C@H](C(=O)Nc1nc2ccccc2[nH]1)N1Cc2ccccc2C1=O [compound 919278]
IC50 ([1]; Lanthascreen, average, Extended Data Fig. 8, read-out: CDK12 IC50): 1.34 µM | Lanthascreen raw signal, sheet CDK12 ([1]; compound 0.038147 nM, series r13): 0.01141 and 0.01078 | Lanthascreen raw signal, sheet CDK12 ([1]; compound 0.038147 nM, series r49): 0.007974 and 0.007894 | Lanthascreen raw signal, sheet CDK12 ([1]; compound 0.152588 nM, series r13): 0.01172 and 0.01127 | Lanthascreen raw signal, sheet CDK12 ([1]; compound 0.152588 nM, series r49): 0.009529 and 0.009772 | Lanthascreen raw signal, sheet CDK12 ([1]; compound 0.610352 nM, series r13): 0.01156 and 0.01218 | Lanthascreen raw signal, sheet CDK12 ([1]; compound 0.610352 nM, series r49): 0.00969 and 0.009867 | Lanthascreen raw signal, sheet CDK12 ([1]; compound 9.76563 nM, series r13): 0.01168 and 0.01068 | Lanthascreen raw signal, sheet CDK12 ([1]; compound 9.76563 nM, series r49): 0.008416 and 0.00874 | Lanthascreen raw signal, sheet CDK12 ([1]; compound 39.0625 nM, series r13): 0.01187 and 0.01164 | Lanthascreen raw signal, sheet CDK12 ([1]; compound 39.0625 nM, series r49): 0.009257 and 0.00975 | Lanthascreen raw signal, sheet CDK12 ([1]; compound 156.25 nM, series r13): 0.01128 and 0.01164 | Lanthascreen raw signal, sheet CDK12 ([1]; compound 156.25 nM, series r49): 0.009429 and 0.008734 | Lanthascreen raw signal, sheet CDK12 ([1]; compound 625 nM, series r13): 0.01093 and 0.01047 | Lanthascreen raw signal, sheet CDK12 ([1]; compound 625 nM, series r49): 0.007601 and 0.007861 | Lanthascreen raw signal, sheet CDK12 ([1]; compound 2500 nM, series r13): 0.009465 and 0.008988 | Lanthascreen raw signal, sheet CDK12 ([1]; compound 2500 nM, series r49): 0.006693 and 0.006957 | Lanthascreen raw signal, sheet CDK12 ([1]; compound 10000 nM, series r13): 0.008087 and 0.007713 | Lanthascreen raw signal, sheet CDK12 ([1]; compound 10000 nM, series r49): 0.006488 and 0.006166 | Kd [2]: 5.6 µM

Source: paper PMC10746543, “Design principles for cyclin K molecular glue degraders” (Nature Chemical Biology, 2023)
